For one test, the system named is 3T3-L1 pre-adipocytes. The test can be described thus: Inhibition of adipocyte differentiation and lipid accumulation, Oil Red O. Format: cell-based. The following applies: 3T3-L1, compound 1 μM, MDI-induced differentiation for 8 days, Oil Red O eluted, absorbance 544 nm; for activity at 1 µM: Mus musculus, 192 h, read-out: lipid accumulation rate. How it is done:
3T3-L1 cells were seeded in a 6-well plate at a density of […] cells per well. The cells were grown to 100% confluency in Dulbecco's modified Eagle's medium (DMEM) supplemented with 10% bovine calf serum (BCS; GIBCO). Two days after reaching 100% confluency, differentiation was induced with or without treatment with the indoline compound at a concentration of 1 μM in DMEM containing 10% fetal bovine serum (FBS; GIBCO) and MDI (520 μM methylisobutylxanthine (IBMX; Sigma-Aldrich), 1 μM dexamethasone (Sigma-Aldrich), and 5 μM insulin (GIBCO)). On day 3, the medium was replaced with DMEM containing 10% FBS and 5 μM insulin with or without the indoline compound, and then with a fresh identical medium every 2 days. After differentiation for 8 days, the culture medium was removed, and the cells were washed with PBS and then fixed with 10% formaldehyde for 1 hour. After removing the 10% formaldehyde, the cells were washed thoroughly with distilled water. After that, 60% isopropanol was added and immediately then removed. After washing with distilled water, lipid droplets were stained with an Oil Red O dye solution for 20 minutes and then washed with distilled water. The cells were counterstained with Mayer's hematoxylin. Oil Red O images were visualized using a bright-field microscope (Nikon TE-2000U). To quantify the accumulated lipids, Oil Red O was eluted by adding isopropanol, and absorbance was measured spectrophotometrically at 544 nm using a multi-plate reader.
As A3051 (KY19382) and A3334, self-developed and synthesized materials were used. As BIO, or GSK 3 Inhibitor IX, also known as 6-bromoindirubin-3′-oxime, HY-10580 was purchased commercially.
In FIG. 2, the undifferentiated group (Un Diff) refers to undifferentiated adipocytes, or preadipocytes that had not been induced to differentiate, and the differentiated group (Diff) refers to fully differentiated adipocytes.

Test [1] has as its target CXXC5-Dvl interaction (PDZ domain of Dvl (dishevelled) protein / PTD-DBM-FITC). The test can be described thus: CXXC5-Dvl binding inhibition, competition of PTD-DBM-FITC on plate-bound Dvl PDZ domain. The conditions noted are these: purified Dvl PDZ domain 5 μg/mL, 10 μM PTD-DBM-FITC, compounds 0.001-100 μM, FITC fluorescence. As to the method:
5 μg/mL of the purified PDZ domain ofDvl (dishevelled) protein was attached to the bottom of a 96-well black immunoplate and left in a chamber at 4° C. for one day. The next day, each well was washed with PBS and 10 μM PTD-DBM-FITC was added. After incubation at room temperature for 3 hours, each well was washed with PBS. Each well was treated with the indoline derivatives at various concentrations (100, 10, 1, 0.1, 0.01, and 0.001 μM) in 100 μL of PBS. After washing with a buffer, fluorescence was measured by FITC using a microplate reader. A competition binding curve showing the degree of CXXC5-Dvl PPI inhibition was constructed using the GraphPad Prism software, and the IC50 value was calculated. […] CK090), and the intermediate compound 5-cyanoindirubin as controls.

Test [2] relates to lipid droplets / PPARγ in liver tissue. Briefly: Liver Oil Red O staining and PPARγ immunohistochemistry in MASH mice. The format is in vivo, C57BL/6N mice. The conditions noted are these: 25 mg/kg/day orally for 4 weeks. As to the method:
(§1) Five-week-old wild-type male C57BL/6N mice were purchased from Orient Bio Co., Ltd. They were allowed to acclimate to the laboratory environment for one week. Mice weighing 18-20 g on average were used in the experiment. To ensure ethical and scientific validity and efficient management of animal experiments, the experiment was conducted with the approval of the Institutional Review Board (IACUC-A-202205-1472-01) of Severance Hospital, Yonsei University College of Medicine.
(§2) The mice were divided into a normal group (NCD) and a high-fat diet group (HFD). The normal group (NCD) was fed a normal chow diet (NCD, Teklad Global 18% protein rodent diet), and the high-fat diet group (HFD) was fed a high-fat diet (HFD, D12492) in which fat accounted for 60% of the total calories, for 8 weeks.
(§3) Mice induced with metabolic dysfunction-associated steatohepatitis (MASH) (hereinafter, referred to as MASH or MASH group) were prepared by administering CCl4 intraperitoneally twice a week for 4 weeks after feeding the high-fat diet (HFD) for 8 weeks. The […] was diluted with corn oil at a ratio of 1:19 and injected at a dosage of 2 mL/kg. The normal group (NOD) was administered the same volume of physiological saline.
(§4) The animals were divided into 7 groups, each with 10 animals.
It was investigated whether the accumulation of triglycerides in the liver is suppressed effectively. For this purpose, liver tissue was extracted from each group, and it was prepared into 10-μm thick cryosections, which were then stained with Oil Red O. Details are as follows. After preparing the 7 groups, the animals were euthanized using carbon dioxide and the liver tissues were extracted. A certain area of the extracted liver tissue was cryosectioned to 10 μm thickness, fixed in 4% neutral paraformaldehyde for 20 minutes at room temperature, and washed with 70% isopropanol (Duksan Pure Chemicals). After staining with the Oil Red O (Sigma-Aldrich) reagent for 20 minutes, the sections were washed thoroughly three times with distilled water. The tissue was counterstained with Mayer's hematoxylin. Then, Oil Red O staining images were visualized using a bright-field microscope (Nikon TE-2000U).
After preparing the 7 groups, the animals were sacrificed using carbon dioxide and the liver tissues were extracted. The extracted tissues were fixed in 4% neutral paraformaldehyde and embedded in paraffin to prepare sections. The paraffin sections were cut to 4-μm thickness, deparaffinized, and then rehydrated. For antigen exposure, slides were autoclaved in a 10 mM sodium citrate buffer (pH 6.0). To block endogenous peroxidase activity prior to peroxidase IHC analysis, the tissues were incubated with 0.3% H2O2 for 10 minutes. The incubated sections were treated with phosphate-buffered saline (PBS) containing 10% NGS and 0.3% Tween-20 for 1 hour at room temperature, treated with primary antibodies of anti-PPARγ (1:50; Abcam), and incubated overnight at 4° C.
The sections treated with the primary antibodies were washed with PBS and incubated with biotinylated anti-mouse (1:400; Dako) or anti-rabbit (1:400; Dako) secondary antibodies for 1 hour at room temperature. The sections incubated with the secondary antibodies were stained with 3,3′-diaminobenzidine (DAB; Dako) for 3-7 minutes and then counterstained with Mayer's haematoxylin. All incubations were performed in a humid chamber. After the staining, images were taken and analyzed using a bright-field microscope (Nikon TE-2000U).

Test [3] has as its system mice induced with metabolic dysfunction-associated steatohepatitis (MASH). The test can be described thus: Liver fibrosis score from collagen staining (Picrosirius red) in MASH mice. The format is in vivo, C57BL/6N mice. The following applies: 25 mg/kg/day orally for 4 weeks; mean±SD; normal group 0, MASH group 3.11. How it is done:
as §1, §2, §3, §4
After preparing the 7 groups, the animals were euthanized using carbon dioxide and the liver tissues were extracted. The extracted tissues were fixed in 4% neutral paraformaldehyde and embedded in paraffin to prepare sections. The paraffin sections were cut to 4-μm thickness, deparaffinized, and then rehydrated. The hydrated sections were stained with a Weigert's iron hematoxylin solution for 8 minutes and then with Picrosirius red for 1 hour. Collagen fibers were stained red and nuclei were stained blue. The sections were photographed using a bright-field microscope (Nikon TE-2000U).
The main mechanism of nonalcoholic fatty liver disease is the induction of hepatic stellate cell activation, which induces collagen production and leads to liver fibrosis due to collagen accumulation. From the result of collagen staining (Picrosirius red) for observing the total amount of collagen deposition in Test Example 3-6, the liver fibrosis score was analyzed. Stages 2 to 3 were diagnosed as nonalcoholic fatty liver disease (MASH) (M. Brunt et al., 2005).
All quantitative data are presented as mean±standard deviation (SD). In each experiment, all measurements were made at least three times, and data were analyzed using the two-tailed, unpaired Student's t test. P values of <0.05 were considered statistically significant.

Structures can show the parent of a compound that is named as a salt.

As to `O=C1Nc2cc(Br)ccc2/C1=C1/Nc2ccccc2/C1=N\O` [BIO, 6-bromoindirubin-3′-oxime, reference compound], the lipid accumulation rate with 3T3-L1 pre-adipocytes was determined as 79.4%.
Regarding `Cc1cc2c(cc1Cl)NC(=O)/C2=C1\Nc2ccccc2\C1=N/OCCN1CCN(C)CC1` [CK090, (2Z,3E)-6′-chloro-5′-methyl-3-((2-(4-methylpiperazin-1-yl)ethoxy)imino)-[2,3′-biindolinylidene]-2′-one, reference compound], the IC50 (commonly the concentration at which inhibition is half-maximal) in test [1] worked out at 4220 nM. This lies in the single-digit micromolar range.
The molecule `N#Cc1ccc2c(c1)/C(=C1/Nc3ccccc3/C1=N\OCCN1CCNCC1)C(=O)N2` [Example 1, (2Z,3E)-2′-oxo-3-((2-(piperazin-1-yl)ethoxy)imino)-[2,3′-biindolinylidene]-5′-carbonitrile] registered an IC50 in test [1] of 19.3 nM. Further, the “lipid droplet formation and lipid infiltration in liver, Oil Red O staining” value in test [2] was “the size and number of lipid droplets were significantly reduced”. For the same molecule, in test [3], the “Degree of liver fibrosis (fibrosis score)” value is reported as 2.00. Also, the activity at 1 µM in the test on 3T3-L1 pre-adipocytes amounted to 32.2%.
Consider `N#Cc1ccc2c(c1)/C(=C1/Nc3ccccc3/C1=N\OCCN1CCCCC1)C(=O)N2` [Example 5, (2Z,3E)-2′-oxo-3-((2-(piperidin-1-yl)ethoxy)imino)-[2,3′-biindolinylidene]-5′-carbonitrile], for which the IC50 in test [1] worked out at 9.29 nM. For the same molecule, the activity at 1 µM in the test on 3T3-L1 pre-adipocytes was found to be 26.2%.
In the case of `N#Cc1ccc2c(c1)/C(=C1/Nc3ccccc3/C1=N\OCCN1CCCC1)C(=O)N2` [Example 6, (2Z,3E)-2′-oxo-3-((2-(pyrrolidin-1-yl)ethoxy)imino)-[2,3′-biindolinylidene]-5′-carbonitrile], in test [1], the IC50 was 37 nM. In addition, in the test on 3T3-L1 pre-adipocytes, the activity at 1 µM amounted to 25.8%.
In test [1], `N#Cc1ccc2c(c1)/C(=C1/Nc3ccccc3/C1=N\OCCCN1CCCCC1)C(=O)N2` [Example 7, (2Z,3E)-2′-oxo-3-((3-(piperidin-1-yl)propoxy)imino)-[2,3′-biindolinylidene]-5′-carbonitrile] returned a 50% inhibitory concentration (IC50) of 10.8 nM. For the same molecule, the activity at 1 µM in the test on 3T3-L1 pre-adipocytes came out at 33.6%.
As for `N#Cc1ccc2c(c1)/C(=C1/Nc3ccccc3/C1=N\OCCCN1CCCC1)C(=O)N2` [Example 8, (2Z,3E)-2′-oxo-3-((3-(pyrrolidin-1-yl)propoxy)imino)-[2,3′-biindolinylidene]-5′-carbonitrile], the IC50 in test [1] came out at 17.2 nM. Further, the activity at 1 µM in the test with 3T3-L1 pre-adipocytes is 25.1%.
Take `N#Cc1ccc2c(c1)/C(=C1/Nc3ccccc3/C1=N\OCCCN1CCNCC1)C(=O)N2` [Example 9, (2Z,3E)-2′-oxo-3-((3-(piperazin-1-yl)propoxy)imino)-[2,3′-biindolinylidene]-5′-carbonitrile]: the IC50 in test [1] was 20.4 nM. Further, the activity at 1 µM in the test on 3T3-L1 pre-adipocytes was determined as 25.4%.
The molecule `N#Cc1ccc2c(c1)/C(=C1/Nc3ccccc3/C1=N\OCCCN1CCOCC1)C(=O)N2` [Example 10, (2Z,3E)-3-((3-morpholinopropoxy)imino)-2′-oxo-[2,3′-biindolinylidene]-5′-carbonitrile] gave an IC50 in test [1] of 12.7 nM. Besides, the activity at 1 µM in the test on 3T3-L1 pre-adipocytes was 24.3%.
`CN1CCN(CCCO/N=C2/C(=C3/C(=O)Nc4ccc(C#N)cc43)Nc3ccccc32)CC1` [Example 11, (2Z,3E)-3-((3-(4-methylpiperazin-1-yl)propoxy)imino)-2′-oxo-[2,3′-biindolinylidene]-5′-carbonitrile] had an IC50 in test [1] of 12.3 nM. In addition, the activity at 1 µM in the test on 3T3-L1 pre-adipocytes worked out at 24.1%.
In turn, `N#Cc1ccc2c(c1)/C(=C1/Nc3ccccc3/C1=N\OCCCN1CCSCC1)C(=O)N2` [Example 12, (2Z,3E)-2′-oxo-3-((3-thiomorpholinopropoxy)imino)-[2,3′-biindolinylidene]-5′-carbonitrile] showed an IC50 in test [1] of 6.26 nM. Also, the activity at 1 µM in the test with 3T3-L1 pre-adipocytes came to 27.4%.
In turn, `N#Cc1ccc2c(c1)/C(=C1/Nc3ccccc3/C1=N\OCCN1CCS(=O)(=O)CC1)C(=O)N2` [Example 13, (2Z,3E)-3-((2-(1,1-dioxidothiomorpholino)ethoxy)imino)-2′-oxo-[2,3′-biindolinidene]-5′-carbonitrile] came in with an IC50 in test [1] of 2.65 nM. The activity at 1 µM in the test with 3T3-L1 pre-adipocytes was 26.6%.
In test [1], `N#Cc1ccc2c(c1)/C(=C1/Nc3ccccc3/C1=N\OCCN1CC[S+]([O-])CC1)C(=O)N2` [Example 14, (2Z,3E)-3-((2-(1-oxidothiomorpholino)ethoxy)imino)-2′-oxo-[2,3′-biindolinidene]-5′-carbonitrile hydrochloride] came in with an IC50 of 26.1 nM. Further, in the test with 3T3-L1 pre-adipocytes, the activity at 1 µM was determined as 26.8%.
As for `N#Cc1ccc2c(c1)/C(=C1/Nc3ccccc3/C1=N\OCCN1CCCC1C(=O)O)C(=O)N2` (stereo not shown) [Example 15, (2-((((2Z,3E)-5′-cyano-2′-oxo-[2,3′-biindolinidene]-3-ylidene)amino)oxy)ethyl)proline], the IC50 in test [1] amounted to 45.2 nM. Besides, the activity at 1 µM with 3T3-L1 pre-adipocytes turned out to be 24.8%.
Molecule `COc1ccc2c(c1)/C(=C1/Nc3ccccc3/C1=N\O)C(=O)N2` [Example A3334, reference compound] returned a lipid accumulation rate in the test with 3T3-L1 pre-adipocytes of 78.7%.
In turn, `O=C1Nc2ccccc2/C1=C1/Nc2ccccc2C1=O` [Indirubin, (Z)-[2,3′-biindolinylidene]-2′,3-dione, reference compound] yielded an IC50 in test [1] of 53900 nM. Besides, in the test with 3T3-L1 pre-adipocytes, the activity at 1 µM was found to be 96.4%.

These data come from patent publication US20260250247A1, “NOVEL INDOLINE DERIVATIVE AND USE THEREOF” (CK REGEON INC., priority 2023, published 2026).
